Patent US11981661B2, “Heterocyclic compounds” (Hoffmann-La Roche Inc., priority 2020, dated 2024)

target: T1, MAGL (Homo sapiens, UniProt Q99685); assay: 2-AG assay (MAGL inhibitory activity, hydrolysis of 2-arachidonoylglycerol followed by mass spectrometry); assay type: biochemical; settings: 50 pM MAGL, 8 μM 2-arachidonoylglycerol, 15 min preincubation, 30 min incubation at RT, concentration range 12.5 μM to 0.8 pM
T1 sequence (Q99685 1-303): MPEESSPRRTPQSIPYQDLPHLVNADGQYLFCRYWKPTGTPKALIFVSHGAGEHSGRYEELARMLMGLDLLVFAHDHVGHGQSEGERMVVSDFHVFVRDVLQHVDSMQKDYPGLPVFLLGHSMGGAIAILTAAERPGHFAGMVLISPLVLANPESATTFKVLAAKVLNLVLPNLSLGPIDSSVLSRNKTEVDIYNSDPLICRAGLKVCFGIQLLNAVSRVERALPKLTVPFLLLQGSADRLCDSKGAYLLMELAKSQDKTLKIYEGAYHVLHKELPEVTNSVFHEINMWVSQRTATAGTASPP
In short: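 Activity derived from the arachidonic acid/d8-arachidonic acid MS intensity ratio after acetonitrile quench. Reaction: 8 μM 2-AG substrate with 50 pM MAGL, 30 min at RT, following 15 min RT compound preincubation; buffer 50 mM TRIS, 1 mM EDTA, 0.01% Tween; final compound range 12.5 μM to 0.8 pM.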

Structure (SMILES)	IC50 [nM]
CS(=O)(=O)c1cc(Cl)ccc1-c1ccc(C2CN(C(=O)CCC3CNC(=O)N3)C2)cc1 (single isomer, unassigned) [Example 218, (+)- or (−)-4-[3-[3-[4-(4-Chloro-2-methylsulfonyl-phenyl)phenyl]azetidin-1-yl]-3-oxo-propyl]imidazolidin-2-one]	1210
CC(C)(C)c1ccc(C2CN(C(=O)CC[C@@H]3COC(=O)N3)C2)cn1 [Example 91, (4R)-4-[3-[3-(6-tert-Butyl-3-pyridyl)azetidin-1-yl]-3-oxo-propyl]oxazolidin-2-one]	357
O=C1N[C@H](CCC(=O)N2CC3(CC(Oc4ccc(C(F)(F)F)nn4)C3)C2)CO1 [Example 152, (4R)-4-[3-Oxo-3-[6-[6-(trifluoro-methyl)pyridazin-3-yl]oxy-2-azaspiro[3.3]heptan-2-yl]propyl] oxazolidin-2-one]	1410
O=C1CCC(CCC(=O)N2CC(c3ccc(-c4ccc(F)cc4F)cc3)C2)N1 (single isomer, unassigned; (-)) [Example 9, (−)-5-[3-[3-[4-(2,4-Difluorophenyl)phenyl]azetidin-1-yl]-3-oxo-propyl]pyrrolidin-2-one]	550
COc1ccc(N(C)c2ccc(C3CN(C(=O)CC[C@@H]4COC(=O)N4)C3)cn2)nc1 [Example 92, (4R)-4-[3-[3-[6-[(5-Methoxy-2-pyridyl)-methyl-amino]-3-pyridyl]azetidin-1-yl]-3-oxo-propyl]oxazolidin-2-one]	293
O=C1CCC(CCC(=O)N2CC(c3ccc(CC(F)(F)F)cc3)C2)N1 (single isomer, unassigned) [Example 7, (−)- or (+)-5-[3-Oxo-3-[3-[4-(2,2,2-trifluoroethyl)phenyl]azetidin-1-yl]propyl]pyrrolidin-2-one]	2580
CC1(CCC(=O)N2CC(c3ccc(Oc4cccc(Cl)c4)nc3)C2)CCC(=O)N1 (single isomer, unassigned) [Example 17, (−)- or (+)-5-[3-[3-[6-(3-Chlorophenoxy)-3-pyridyl]azetidin-1-yl]-3-oxo-propyl]-5-methyl-pyrrolidin-2-one]	≥ 12500
O=C1NC(CCC(=O)N2CC(c3cnc(N4CCC(C(F)(F)F)C4)nc3)C2)CO1 (single isomer, unassigned) [Example 209, (+)- or (−)-(4R)-4-[3-Oxo-3-[3-[2-[3-(trifluoromethyl)pyrrolidin-1-yl]pyrimidin-5-yl]azetidin-1-yl]propyl]oxazolidin-2-one]	131
O=C1N[C@H](CCC(=O)N2CC(c3ccc(N4CC5(CCCO5)C4)nc3)C2)CO1 [Example 172, (4R)-4-[3-[3-[6-(5-Oxa-2-azaspiro[3.4]octan-2-yl)-3-pyridyl]azetidin-1-yl]-3-oxo-propyl]oxazolidin-2-one]	827
O=C1N[C@H](CCC(=O)N2CC(c3cnc(C4(C(F)(F)F)CC4)nc3)C2)CO1 [Example 101, (4R)-4-[3-Oxo-3-(3-[2-[1-(trifluoro-methyl)cyclopropyl]pyrimidin-5-yl]azetidin-1-yl]propyl]oxazolidin-2-one]	481
O=C1N[C@@H](CCC(=O)N2CC(OCc3ccc(C(F)(F)F)cc3F)C2)CO1 [Example 19, (4S)-4-[3-[3-[[2-Fluoro-4-(trifluoromethyl)phenyl]methoxy]azetidin-1-yl]-3-oxo-propyl]oxazolidin-2-one]	1550
NS(=O)(=O)c1ccccc1CN1CC2(C1)CN(C(=O)CC[C@@H]1COC(=O)N1)C2 [Example 153, 2-[[2-[3-[(4R)-2-Oxooxazolidin-4-yl]propanoyl]-2,6-diazaspiro[3.3]heptan-6-yl]methyl]benzene-sulfonamide]	2330
CS(=O)(=O)c1ccc(C(c2ccccc2)C2CCN(C(=O)CC[C@@H]3COC(=O)N3)CC2)cc1 (single isomer, unassigned) [Example 84, (−)- or (+)-(−)-(4R)-4-[3-[4-[(4-Methyl-sulfonylphenyl)-phenyl-methyl]-1-piperidyl]-3-oxo-propyl]oxazolidin-2-one]	294
O=C1N[C@H](CCC(=O)N2CC3(C2)CN(S(=O)(=O)c2ccc(F)cc2C(F)(F)F)C3)CO1 [Example 97, (4R)-4-[3-[2-[4-Fluoro-2-(trifluoromethyl)phenyl]sulfonyl-2,6-diazaspiro[3.3]heptan-6-yl]-3-oxo-propyl] oxazolidin-2-one]	350
O=C1COCC(CCC(=O)N2CC(OCc3ccc(C(F)(F)F)cc3F)C2)N1 (single isomer, unassigned; (-)) [Example 50, (−)-5-[3-[3-[[2-Fluoro-4-(trifluoromethyl)phenyl]methoxy]azetidin-1-yl]-3-oxo-propyl]morpholin-3-one]	≥ 12500
O=C1N[C@H](CCC(=O)N2CC(c3ccc(-c4nc(C5(C(F)(F)F)CC5)n[nH]4)cc3)C2)CO1 [Example 178, (4R)-4-[3-Oxo-3-[3-[4-[3-[1-(trifluoro-methyl)cyclo-propyl]-1H-1,2,4-triazol-5-yl]phenyl]azetidin-1-yl]propyl]oxazolidin-2-one]	181
CN(c1ccccc1)c1ccc(C2CN(C(=O)CC[C@@H]3COC(=O)N3)C2)cn1 [Example 93, (4R)-4-[3-[3-[6-(N-Methyl-anilino)-3-pyridyl]azetidin-1-yl]-3-oxo-propyl]oxazolidin-2-one]	173
CC(C)(O)C1CN(c2ccc(C3CN(C(=O)CC[C@@H]4COC(=O)N4)C3)cn2)C1 [Example 170, (4R)-4-[3-[3-[6-[3-(1-Hydroxy-1-methyl-ethyl)azetidin-1-yl]-3-pyridyl]azetidin-1-yl]-3-oxo-propyl]oxazolidin-2-one]	329

Now those with a lower IC50, led by results:

IC50 [nM]	Structure (SMILES)
28	O=C1N[C@H](CCC(=O)N2CC3(CCN(Cc4cccc(S(=O)(=O)C(F)(F)F)c4)CC3)C2)CO1 [Example 195, (4R)-4-[3-Oxo-3-[7-[[3-(trifluoro-methylsulfonyl)phenyl]methyl]-2,7-diazaspiro [3.5]nonan-2-yl]propyl] oxazolidin-2-one]
0.02	O=C1N[C@H](CCC(=O)N2CC(c3ccc(N(CC4CC4)c4ccccc4)cc3)C2)CO1 [Example 89, (4R)-4-[3-[3-[4-[N-(Cyclopropylmethyl)anilino]phenyl]azetidin-1-yl]-3-oxo-propyl] oxazolidin-2-one]
13	CC(C[C@@H]1COC(=O)N1)C(=O)N1CC(OCc2ccc(C(F)(F)F)cc2F)C1 (stereo partly drawn) [Example 35, (4R)-4-[3-[3-[[2-Fluoro-4-(trifluoromethyl)phenyl]methoxy]azetidin-1-yl]-2-methyl-3-oxo-propyl]oxazolidin-2-one]
59	CS(=O)(=O)c1cc(F)cc(CC2CC3(C2)CN(C(=O)CC[C@@H]2COC(=O)N2)C3)c1 [Example 184, (4R)-4-[3-[6-[(3-Fluoro-5-methylsulfonyl-phenyl)methyl]-2-azaspiro[3.3]heptan-2-yl]-3-oxo-propyl]oxazolidin-2-one]
84	O=C1N[C@H](CCC(=O)N2CC3(CC(Cc4ncc(C(F)(F)F)cn4)C3)C2)CO1 [Example 183, (4R)-4-[3-Oxo-3-[6-[[5-(trifluoro-methyl)pyrimidin-2-yl]methyl]-2-azaspiro[3.3]heptan-2-yl]propyl] oxazolidin-2-one]
2	O=C1N[C@H](COC(=O)N2CC3(CC(Cc4ccc(F)cc4F)C3)C2)CO1 [Example 57, [(4S)-2-Oxooxazolidin-4-yl]methyl 6-[(2,4-difluorophenyl)methyl]-2-azaspiro[3.3]heptane-2-carboxylate]
33	CS(=O)(=O)c1cc(Cl)ccc1-c1ccc(C2CN(C(=O)CCC3CNC(=O)N3)C2)cc1 (single isomer, unassigned) [Example 217, (−)- or (+)-4-[3-[3-[4-(4-Chloro-2-methylsulfonyl-phenyl)phenyl]azetidin-1-yl]-3-oxo-propyl]imidazolidin-2-one]
10	CC(C)c1ccc(N(C)c2ccc(C3CN(C(=O)CC[C@@H]4COC(=O)N4)C3)cn2)cc1 [Example 94, (4R)-4-[3-[3-[6-(4-Isopropyl-N-methyl-anilino)-3-pyridyl]azetidin-1-yl]-3-oxo-propyl]oxazolidin-2-one]
26	O=C1N[C@H](COC(=O)N2CC(c3ccc(N4CCC(C(F)(F)F)C4)nc3)C2)CO1 (stereo partly drawn) [Example 62, [(4S)-2-Oxooxazolidin-4-yl]methyl 3-[6-[3-(trifluoromethyl)pyrrolidin-1-yl]-3-pyridyl]azetidine-1-carboxylate]
5	O=C1N[C@H](CCC(=O)N2CC(c3ccc(N4CC(OCC(F)(F)F)C4)cc3)C2)CO1 [Example 99, (4R)-4-[3-Oxo-3-[3-[4-[3-(2,2,2-trifluoro-ethoxy)azetidin-1-yl]phenyl]azetidin-1-yl]propyl] oxazolidin-2-one]
123	NC(=O)c1cc(Cl)ccc1Oc1ccc(C2CN(C(=O)CC[C@@H]3COC(=O)N3)C2)cn1 [Example 85, 5-Chloro-2-[[5-[1-[3-[(4R)-2-oxooxazolidin-4-yl]propanoyl]azetidin-3-yl]-2-pyridyl]oxy]benzamide]
16	O=C1N[C@H](CCC(=O)N2CC(c3ccc(N4CC(C(F)(F)F)C4)c(F)c3)C2)CO1 [Example 134, (4R)-4-[3-[3-[3-Fluoro-4-[3-(trifluoromethyl)azetidin-1-yl]phenyl]azetidin-1-yl]-3-oxo-propyl] oxazolidin-2-one]
14	O=C1N[C@H](CCC(=O)N2CC(c3ccc(N4CCC(C(F)(F)F)C4)nc3)C2)CO1 (stereo partly drawn) [Example 34, (4R)-4-[3-Oxo-3-[3-[6-[3-(trifluoromethyl)pyrrolidin-1-yl]-3-pyridyl]azetidin-1-yl]propyl]oxazolidin-2-one]
